In US5037822A, “1-arylsulphonyl-2-pyrrolidinethione or 1-arylsulphonyl-2-piperidinethione derivatives, process for the preparation thereof their application as medicinal products and compositions containing them” (Roussel-Uclaf, priority 1989, dated 1991):
Like-named read-outs stand apart in the source and are kept apart here.

Columns and labels:
[1] = system: isolated guinea pig ileum, contractions induced by acetylcholine; assay: Antagonist action on acetylcholine-induced contractions of isolated guinea pig ileum; format: cell-based; conditions: Cavia porcellus, read-out: Antagonist to ACh, IC50
Experimental: (§1) The interaction of the compounds with different receptors was assessed on isolated guinea pig ileum according to the following method.
(§2) Guinea pig ileum segments measuring 2.5-3 cm were washed and immediately suspended in a bath containing 10 ml of Tyrode's solution at 37° C. aerated with a mixture of oxygen (95%) and carbon dioxide (5%). After a stabilization period of at least 30 minutes, the contractions were recorded, maintaining the preparation under constant tension of 1 g using a gauge connected to a polygraph. The agonist action was assessed by leaving the compound in contact with the isolated tissue for a period necessary for expressing the maximal contraction; the preparation was then washed with Tyrode's solution. The next dose was added to the bath only after the preparation had returned to its base line. As a reference product, arecoline was employed. The antagonist action was assessed on contractions induced by acetylchloine (1×10^-6 M), histamine (1×10^-5 M) and barium chloride (2×10^-4 M). Atropine, diphenhydramine and papaverine were employed as reference products. The contact time before adding the agonist was one minute.
(§3) For each compound, the dose-response curves are obtained with 4 to 6 different concentrations and 3 to 5 independent tests. The agonist activity is expressed by pD2 (negative logarithm of the dose which produces 50% of the maximum effect). The antagonist activity is expressed by IC50 (concentration inhibiting 50% of the maximal response).

[2] = system: cholinomimetic effects induced by carbachol; assay: In vivo anticholinergic action: inhibition of carbachol-induced cholinomimetic effects in mice; parameters: species or system CD1 male mice; conditions: for ED50 / ED (1 C): Mus musculus, ip; for ED (1 C): read-out: Body temperature: dose increasing by 1° C. the hypothermic effect induced by the cholinergic agent
Experimental: The anticholinergic activity of the compounds was determined by assessing the capacity to inhibit the cholinomimetic effects induced by carbachol. Atropine sulphate was employed as a reference product.
CD1 male mice weighing 25 to 30 g were used. They were distributed in groups of 6 animals and treated intraperitoneally with scalar doses of the products or 0.25% Methocel for the controls. 12 animals were used for each dose. 30 minutes after administration of the compounds, the mice were injected subcutaneously with 1 mg/kg of carbachol dissolved in physiological saline.
Each animal was examined 30 minutes after the injection of carbachol to assess the presence of diarrhoea, salivation and eye watering; in addition, the body temperature was measured by means of a thermocouple inserted 1.5 cm into the rectum.
For each compound, we have determined and recorded in the following table the dose capable of inhibiting the appearance of the carbachol-induced cholinometric symptoms in 50% of the animals, and of increasing by 1° C. the hypothermic effect induced by the cholinergic agent.

Muscarinic receptor 1 = molecular target: T1, Muscarinic receptor 1 (Rattus norvegicus, UniProt P08482); assay: Binding to muscarinic receptor 1 ([3H]pirenzepine); conditions: 0.25 nM [3H]pirenzepine, rat cortex homogenate, pH 7.4, 60 min, 25° C.; read-out: Affinity for M1 muscarinic receptor, IC50
T1 construct: cortices removed from the brains of male rats; tissue Iffa Credo (animals); host or cells: cerebral cortex of male rats weighing 150 to 200 g, homogenate
T1 sequence (P08482 1-460): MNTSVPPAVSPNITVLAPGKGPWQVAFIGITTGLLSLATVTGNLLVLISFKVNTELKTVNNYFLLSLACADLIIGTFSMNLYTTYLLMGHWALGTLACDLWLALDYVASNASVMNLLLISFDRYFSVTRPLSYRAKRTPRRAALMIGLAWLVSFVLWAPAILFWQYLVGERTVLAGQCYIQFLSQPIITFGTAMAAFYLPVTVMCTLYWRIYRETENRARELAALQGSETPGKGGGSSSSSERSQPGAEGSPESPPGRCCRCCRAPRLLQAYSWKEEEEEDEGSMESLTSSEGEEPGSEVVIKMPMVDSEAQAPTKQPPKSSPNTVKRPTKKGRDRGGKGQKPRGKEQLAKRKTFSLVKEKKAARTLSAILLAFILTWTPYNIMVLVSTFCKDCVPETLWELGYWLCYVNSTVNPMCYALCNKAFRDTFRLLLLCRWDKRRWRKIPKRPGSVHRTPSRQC
Experimental: Preparation of this is carried out from cortices removed from the brains of male rats weighing 150 to 200 g (Iffa Credo), ground in a Polytron in a 10 mM Na/K buffer pH 7.4. After incubation (0.5 ml aliquots of homogenate) for 60 minutes at 25° C. in the presence of 0.25 nM [^3 H]pirenzepine, either alone, or with the test product, or with an excess of 10^-5 M pirenzepine (to determine the non-specifically bound radioactivity), the incubates are cooled and filtered.
The filtration is performed on Whatman GF/C filters prewashed in a 0.05% strength solution of polyethylenimine. The filters are rinsed with 3×5 ml of 10 mM Na/K phosphate buffer pH 7.4 and the measurements are then performed by liquid scintillation.
(§4) The results are expressed as an IC50 (concentration needed to inhibit by 50% the specifically bound radioactivity).

Muscarinic receptor 2 = assay: Binding to muscarinic receptor 2 ([3H]quinuclidinyl benzylate); conditions: 0.3 nM [3H]quinuclidinyl benzylate, rat brain, pH 7.5, 60 min, 25° C.; read-out: Affinity for M2 muscarinic receptor, IC50
Experimental: The preparation is performed from brains of male rats weighing 150 to 200 g (Iffa Credo).
The brains are ground (Teflon-glass) in 0.32M sucrose solution. The homogenate is centrifuged for 10 minutes at 1,000 g (0°-4° C.).
The supernatant obtained is collected and centrifuged at 30,000 g for 15 minutes (0°-4° C.).
The pellet is resuspended in 50 mM Tris buffer pH 7.5 and the new homogenate is centrifuged again at 30,000 g for 15 minutes (0°-4° C.).
After removal of the supernatant, the pellets may be used immediately or stored for up to 1 month at -30° C.
For an experiment, the pellets are first thawed, if necessary, at room temperature and resuspended using a Dounce in 50 mM Tris buffer pH 7.5. 2 ml aliquots are incubated for 60 minutes at 25° C. in the presence of 0.3 nM [^3 H]quinuclidinyl benzylate, either alone, or with the test product, or with 10^-5 M benzatropine to determine the non-specifically bound radioactivity.
At the end of the incubation period, the incubate tubes are cooled to 4° C. and filtered rapidly on Whatman GF/C filters. The filters are rinsed with 3×5 ml of 50 mM Tris buffer pH 7.5 and the measurements are then performed by liquid scintillation (Henry I. Yamamura, Solomon H. Snyder, Proc. Nat. Acad. Sc. (1974) 71, No. 5, 1725-1729).
as §4

[3] = system: isolated guinea pig ileum, contractions induced by histamine; assay: Antagonist action on histamine-induced contractions of isolated guinea pig ileum; format: cell-based; conditions: Cavia porcellus; histamine 1×10^-5 M, contact time one minute, 37° C.; read-out: Antagonist to Histam., IC50
Experimental: as §1
as §2, with “The antagonist action was assessed on contractions induced by acetylchloine (1×10^-6 M), histamine (1×10^-5 M) and barium chloride (2×10^-4 M). Atropine, diphenhydramine and papaverine were employed as reference products.” left out
as §3

[4] = system: isolated guinea pig ileum, contractions induced by barium chloride; assay: Antagonist action on barium chloride-induced contractions of isolated guinea pig ileum; format: cell-based; conditions: Cavia porcellus, read-out: Antagonist to BaCl2, IC50
Experimental: as §1, §2, §3

[5] = system: isolated guinea pig ileum; assay: Agonist action on isolated guinea pig ileum; format: cell-based; conditions: Cavia porcellus, read-out: Agonist action pD2 (converted)
Experimental: as §1, §2, §3

[6] = acetylcholine 1×10^-6 M, contact time one minute, 37° C.
[7] = barium chloride 2×10^-4 M, contact time one minute, 37° C.
[8] = negative logarithm of the dose producing 50% of the maximum effect, 37° C.
[9] = 30 min before carbachol 1 mg/kg s.c., mice
[10] = 30 min before carbachol 1 mg/kg s.c., mice, read-out: Dose inhibiting carbachol-induced diarrhoea in 50% of the animals
[11] = 30 min before carbachol 1 mg/kg s.c., mice, read-out: Dose inhibiting carbachol-induced eye watering in 50% of the animals
[12] = 30 min before carbachol 1 mg/kg s.c., mice, read-out: Dose inhibiting carbachol-induced salivation in 50% of the animals

IC50 (Muscarinic receptor 1) | IC50 (Muscarinic receptor 2) | IC50 [1, 6] | IC50 [3] | IC50 [4, 7] | EC50 [5, 8] | Compound | IC50 [1] | ED50 ([2]; read-out: Dose inhibiting carbachol-induced diarrhoea in 50% of the animals) | ED50 ([2]; read-out: Dose inhibiting carbachol-induced eye watering in 50% of the animals) | ED50 ([2]; read-out: Dose inhibiting carbachol-induced salivation in 50% of the animals) | ED (1 C) [2, 9] | ED50 [2, 10] | ED50 [2, 11] | ED50 [2, 12] | EC50 [5] | cholinomimetic symptoms induced by carbachol ([2]; 1 mg/kg s.c., control mice) | decrease in rectal temperature induced by carbachol ([2]; 1 mg/kg s.c., control mice) | IC50 [4]
 |  |  |  |  |  | CN1[C@@H]2CC[C@H]1C[C@@H](OC(=O)C(CO)c1ccccc1)C2 (stereo partly shown) [Atropine, reference compound] | 0.0095 µM | 0.04 mg/kg | 0.05 mg/kg | 0.06 mg/kg |  |  |  |  |  |  |  | 
0.043 µM | 2.2 µM | 0.57 µM | > 10 µM | > 10 µM | > 10 µM | CCN(CC)c1ccc(S(=O)(=O)N2CCCC2=S)cc1 [Example 1, 1-[4-(Diethylamino)benzenesulphonyl]-2-pyrrolidinethione] |  |  |  |  | > 50 mg/kg | 5 mg/kg | > 50 mg/kg | > 50 mg/kg |  |  |  | 
0.01 µM | 0.12 µM | 0.28 µM |  | > 10 µM | > 10 µM | O=S(=O)(c1ccc(N2CCCCCC2)cc1)N1CCCC1=S [Example 5, 1-[4-(1-Hexahydroazepinyl)benzenesulphonyl]-2-pyrrolidinethione] |  |  |  |  | 12 mg/kg | 0.6 mg/kg | > 50 mg/kg | 15 mg/kg |  |  |  | 
 |  |  |  |  |  | COC(=O)C1=CCCN(C)C1 [Arecoline, arecoline, reference compound] |  |  |  |  |  |  |  |  | 0.209 µM |  |  | 
0.073 µM | 1.9 µM | 0.34 µM | > 10 µM | > 10 µM | > 10 µM | CCN(CC)c1ccc(S(=O)(=O)N2CCCCC2=S)cc1 [Example 2, 1-[4-(diethylamino)benzenesulphonyl]-2-piperidinethione] |  |  |  |  | > 50 mg/kg | 8 mg/kg | > 50 mg/kg | > 50 mg/kg |  |  |  | 
0.03 µM | 0.58 µM | 3.6 µM |  | > 10 µM | > 10 µM | O=S(=O)(c1ccc(N2CCCCC2)cc1)N1CCCCC1=S [Example 4, 1-[4-(1-Piperidyl)benzenesulphonyl]-2-piperidinethione] |  |  |  |  | > 50 mg/kg | 7 mg/kg | > 50 mg/kg | > 50 mg/kg |  |  |  | 
 |  |  |  |  |  | C[N+](C)(C)CCOC(N)=O [Carbachol, carbachol, reference compound] |  |  |  |  |  |  |  |  |  | induced diarrhoea, salivation and eye watering in all the control mice | approximately 2.5 °C | 
0.012 µM | 0.23 µM | 0.19 µM |  | > 10 µM | > 10 µM | O=S(=O)(c1ccc(N2CCCCCC2)cc1)N1CCCCC1=S [Example 6, 1-[4-(1-Hexahydroazepinyl)benzenesulphonyl]-2-piperidinethione] |  |  |  |  | > 50 mg/kg | 2 mg/kg | > 50 mg/kg | 40 mg/kg |  |  |  | 
0.025 µM | 0.65 µM | 2.6 µM |  | > 10 µM | > 10 µM | O=S(=O)(c1ccc(N2CCCCC2)cc1)N1CCCC1=S [Example 3, 1-[4-(1-piperidyl)benzenesulphonyl]-2-pyrrolidinethione] |  |  |  |  | > 50 mg/kg | 3 mg/kg | > 50 mg/kg | > 50 mg/kg |  |  |  | 
 |  |  |  |  |  | COc1ccc(Cc2nccc3cc(OC)c(OC)cc23)cc1OC [Papaverine, papaverine, reference compound] |  |  |  |  |  |  |  |  |  |  |  | 45 µM
